The text below walks through data of US20100113406A1, “USE OF GLUCOCORTICOIDS FOR TREATMENT OF CONGESTIVE HEART FAILURE” (priority 2007, published 2010).

The nature of series [1]: Pharmacokinetic study in normal Wistar rats (IPC vs IV infusion, corticosterone levels by HPLC). It is filed as in vivo, Wistar rat. The note with it: local (intrapericardial) administration versus systemic (IV) administration of the same amount of drug; 4 weeks infusion; FIG. 2. On the procedure:
Normal Wistar rats were used for this Example. Animals were housed at the animal facilities of the University of Maastricht with a 12-hour light/dark cycle and had free access to standard rat chow and tap-water. Experiments were performed according to institutional guidelines and conformed to the Guide for the Care and Use of Laboratory Animals published by the US National Institutes of Health (NIH Publication No. 85-23, revised 1996).
The rats underwent a surgical procedure to install pericardial and intravenous catheters and minipumps. Construction of the pericardial catheters and the procedure to install the catheter into the pericardial space were conducted as described by Hermans, which has been discussed above.
Briefly, the pericardial catheters consisted of silicone tubing (internal diameter: 0.51 mm; external diameter 0.94 mm, Degania Silicone, Degania Bet, Israel), which, by assembling its endings with a polyolefin shrinking sleeve (Farnell Compounds, Maarssen, the Netherlands), was shaped as a loop (length appr. 2 cm, width appr. 1 cm). Silicone glue was applied in the middle of the loop, to create two separate chambers (one used for fluid injection, the second closed, i.e. connected to a closed ending). The fluid infusion chamber was provided with holes by use of a 25-gauge perforator. […]

In series [2] the test system is spontaneous hypertensive heart failure (SHHF) rats. The series is described as follows: Left ventricular pressures, contractility, relaxation, arterial pressure and heart rate in SHHF rat model of CHF. In kind it is in vivo. As for the experimental part: (§1) Forty to forty-two week old male lean spontaneous hypertensive heart failure (SHHF) rats (originally obtained from Charles River, Boston, USA) were used. Animals were housed at the animal facilities of the University of Maastricht with a 12-hour light/dark cycle and had free access to standard rat chow and tap-water. Experiments were performed according to institutional guidelines and conformed to the Guide for the Care and Use of Laboratory Animals published by the US National Institutes of Health (NIH Publication No. 85-23, revised 1996).
The rats underwent a surgical procedure to install pericardial and intravenous catheters and minipumps according to the procedure of Example 1.
Animals were randomly assigned to treatment groups (n=9 per group). Total treatment time was 4 weeks for all animals. The groups were as follows: • (1) corticosterone high dose IPC (60 micrograms/day) • (2) corticosterone low dose IPC (6 micrograms/day) • (3) corticosterone high dose IV (60 micrograms/day) • (4) corticosterone low dose IV (6 micrograms/day) • (5) vehicle
Where IPC—intrapericardial dosing, and IV=intravenous dosing.
During treatment, Group 5 (vehicle) rats were continuously infused with vehicle (40% polyethylene glycol in water; 60 μl/day) via both catheters. Experimental groups obtained continuous infusions as follows: • Group (1)—a high dose (60 ug/day) of corticosterone hemisuccinate intrapericardially and vehicle intravenously; • Group (2)—a low dose (6 ug/day) of corticosterone hemisuccinate intrapericardially and vehicle intravenously; • Group (3)—a high dose (60 ug/day) of corticosterone hemisuccinate intravenously and vehicle intrapericardially; and • Group (4)—a low dose (6 ug/day) of corticosterone hemisuccinate intravenously and vehicle intrapericardially. • Corticosterone hemisuccinate was purchased from Sigma (St Louis, Mo.)
Left ventricular pressures, contractility and relaxation were evaluated at the end of the study as described in B J Janssen et al., “Effects of anesthetics on systemic hemodynamics in mice.” Am J Physiol Heart Circ Physiol 287:H1618-1624 (2004). For this purpose rats were anaesthetized with pentobarbital (50 mg/kg i.p., Sigma). A high-fidelity catheter tip micromanometer (Mikro-tip 1.4F; SPR-671, Millar Instruments, Houston, Tex., USA) was inserted into the left ventricular cavity through the right carotid artery. Before the tip was inserted into the left ventricle, mean arterial pressures and heart rates were briefly recorded in the carotid artery. Left ventricular pressure was measured and sampled at a rate of 2 kHz under an I.V. ramp infusion of dobutamine up to 5 ng/gBW/min (Sigma) using a microinjection pump (model 200 Series, KD Scientific, Boston, Mass., USA). Maximal positive (+dp/dt/p) and negative (−dp/dt/p) pressure development were determined. At the end of the experiment blood and organs were harvested, weighed and rapidly processed and frozen for future analyses.

For series [3] the test system is unchanged. The series is described as follows: Left ventricular collagen by Picro Sirius Red staining in SHHF rats. In kind it is in vivo, rat. The note with it: 6 or 60 micrograms/day IPC or IV, 4 weeks, FIG. 12. As for the experimental part: as §1
(§2) Animals were randomly assigned to treatment groups (n=9 per group). Total treatment time was 4 weeks for all animals. […]
Collagen volume fraction of each section was determined using a computer image analyzing system (Leica Q-Win). Interstitial collagen density of heart sections was evaluated in the left ventricle (LV) subepicardial myocardium regions. Ten fields from each region (magnification ×20) were randomly selected for analyses and the area stained was calculated as percentage of the total area within a field.
Perivascular collagen was expressed as ratio of the area of the collagen surrounding the vessel divided to the area of the coronary arteries media in order to correct for differences in vessel size (magnification ×20 or ×40). We calculated an average value for interstitial and perivascular fibrosis or each animal. […]

The test system is the same in series [4]. Kind of series: Transthoracic echocardiography in SHHF rats. In kind it is in vivo, rat. The note with it: treatment end versus treatment start, FIG. 4. As for the experimental part:
as §1, §2
At the start and end of the treatment, transthoracic echocardiography was performed under isoflurane anesthesia in part of the rats (5-7 per group) using the SONOS 5500 echocardiographic system equipped with a 15-MHz linear-array transducer (Philips Medical Systems Corp., Netherlands). […] The 2-dimensional parasternal long- and short-axis view of the left ventricle and the parasternal short axis M-mode tracings were recorded.
Measurements and calculations performed are the following: percent LV fractional shortening (FS) was calculated as follows: […], where LVIDd and LVIDs are end-diastolic and end-systolic left ventricle internal dimensions, respectively. […]

The test system of series [5] is collagens I and III and BNP mRNA. The series is described as follows: Left ventricular gene expression levels of collagens I and III and BNP (real-time PCR) in SHHF rats. The note with it: SHHF rat left ventricle, 4 weeks treatment; FIG. 13. It is filed as in vivo. On the procedure:
Left ventricular gene expression levels of collagens I and III and BNP were determined as follows. mRNA expression analyses were performed as follows:
Heart samples (i.e. basal side of the hearts) were shock frozen in liquid nitrogen for RNA. Total RNA from the LV was isolated using the Ultraspec II kit (Bioteckx), according to the instructions of the manufacturer. After integrity checking and determining RNA concentrations with the nanodrop procedure, the RNA concentrations were adjusted to 100 ng/μl For first strand cDNA synthesis, 100 ng heat denatured RNA and 200 pmol random hexamer primers (Pharmacia, Uppsala Sweden) were transferred to a Ready-To-Go first strand bead (Pharmacia, Uppsala Sweden) tube and the volume adjusted to 33 μl.
The reaction (1 hour at 37° C.) was stopped by heat inactivating (2 minutes at 94° C.) the transcriptase and samples were cooled to 4° C. For conducting the real-time PCR, […] of the cDNA templates (100× diluted) were added to SYBR green master mix (Eurogentec) and primers (15 μM final concentration each) yielding a total volume of […], following the instructions of the Eurogentec.
PCR-primers (Sigma Genosys) were selected based on published primers/cDNA sequences and had the following sequences (5′→3′): […]
yielding products with fragment lengths of 253, 147 and 86 base pairs for PGK 1 (phosphoglycerate kinase 1), BNP (brain natriuretic peptide) and collagens I and -III respectively.
Samples were denatured and incubated for 40 cycles at 60° C. (120 seconds; annealing and synthesis) and 95° C. (15 seconds), during which fluorescence was continuously monitored (Biorad thermocycler).
Based on the linear part of the curves, initial gene concentrations were derived by comparing signals with standard curves. Validity of the procedure was checked by constructing melting curves for every sample.
Calculated gene expression levels were standardized for the house keeping gene PGK1 and were normalized versus RNA obtained from untreated control animals. Data are therefore expressed as arbitrary units (means±SEM).

“Also recorded” adds a separate entry of the source.

Turning to `C[C@]12C[C@H](O)[C@H]3[C@@H](CCC4=CC(=O)CC[C@@]43C)[C@@H]1CC[C@@H]2C(=O)CO` [corticosterone], in series [1], the “corticosterone concentration in rat heart tissue” value is listed as “higher concentration”. In addition, the cardiac filling rate result in series [2] (6 or 60 micrograms/day IPC or IV, 4 weeks) is “improved”. For the same compound, the “left ventricular end diastolic pressure” value in series [2] (6 or 60 micrograms/day IPC or IV, 4 weeks, FIG. 8) is “improved; also recorded: positively affects”. In series [2] (6 or 60 micrograms/day IPC or IV, 4 weeks, FIG. 10), the left ventricular contractility entry is recorded as “improved; also recorded: positively affects”. For the same compound, the left ventricular relaxation result in series [2] (6 or 60 micrograms/day IPC or IV, 4 weeks, FIG. 11) is “positively affects”. Besides, in series [2] (right carotid artery, 4 weeks treatment, FIG. 5), the heart rate result is “no differences between treatments; also recorded: not affecting”. In addition, in series [2] (right carotid artery, 4 weeks treatment, FIG. 6), the “mean arterial pressure (MAP) / blood pressure” value is “no differences between treatments; also recorded: not affecting”. Further, the “left ventricular epicardial collagen area” value in series [3] is “improved; also recorded: positively affects”. For the same compound, the “echocardiographic examinations (left ventricular dimensions or performance parameters)” value in series [4] is listed as “no differences between treatments”. In addition, in series [5], the “mRNA expression of B-type natriuretic peptide (BNP)” value was “reduces”, the “mRNA expression of Type I collagen” value is on record as “reduces” and the “mRNA expression of Type III collagen” value was “reduces”.
